According to patent US10213415B2, “Compounds as opioid receptor modulators” (JANSSEN PHARMACEUTICA NV, priority 2004, dated 2019):
Where “and” joins values, the source holds several entries; their conditions need not be identical. Identical values can stand only once. Like-named read-outs stand apart in the source and are kept apart here.

Experiments:
[1] = molecular target: T1, human delta subtype 2 opioid receptor (Homo sapiens, UniProt P41143); assay: Human Delta Opioid Receptor Binding Assay (CHO membranes, 3H-Naltrindole); settings: read-out: hKi δ
T1 construct: purchased Perkin Elmer RBHODM400UA; host or cells: Chinese Hamster Ovary cells (recombinant expression)
Method: This assay is designed to test the ability of a compound to interfere with the binding of tritiated Naltrindole to the human delta subtype 2 opioid receptor. Membranes from Chinese Hamster Ovary cells expressing the human delta subtype 2 opioid receptor (Perkin Elmer #RBHODM400UA) are homogenized in assay buffer (50 mM Tris, pH 7.5 with 5 mM MgCl2) using a glass tissue grinder, Teflon pestle and a Steadfast Stirrer (Fisher Scientific). The concentration of membranes is adjusted to 100 μg/mL in assay buffer and 100 μL is dispensed into each well of the assay plate, a 96 well round bottom polypropylene plate. Compounds to be tested are solubilized in DMSO (Pierce), 10 mM, then diluted in assay buffer to 6× the desired final concentration. The ligand, ^3H-Naltrindole (Perkin Elmer #NET-1065) is also diluted in assay buffer to 6 nM. In a second 96 well round bottom polypropylene plate, known as the premix plate, 60 μL of the 6× compound is combined with 60 μL of 6 nM ^3H-Naltrindole. From this premix plate 50 μL is transferred to the assay plate containing the membranes, in duplicate. The assay plate is incubated for 30 min at room temperature. A GF/C 96 well filter plate (Perkin Elmer #6005174) is pretreated with 0.3% polyethylenimine for 30 min. The contents of the assay plate are filtered through the filter plate using a Packard Filtermate Harvester, and washed 3 times with 0.9% saline that is 4° C. The filter plate is dried, the underside sealed, and 30 μL Microscint20 (Packard #6013621) added to each well. A Topcount-NXT Microplate Scintillation Counter (Packard) is used to measure emitted energies in the range of 2.9 to 35 KeV. Results are compared to maximum binding, wells receiving no inhibitors. Nonspecific binding is determined in the presence of 1 μM unlabelled Naltrindole (Sigma #N115).

[2] = molecular target: T2, human mu opioid receptor (Homo sapiens, UniProt P35372); assay: Human Mu Opioid Receptor Binding Assay (CHO membranes, 3H-Damgo); settings: read-out: hKi μ
T2 construct: purchased Perkin Elmer RBHOMM400UA; host or cells: Chinese Hamster Ovary cells (recombinant expression)
Summary of the method: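 Membranes from CHO cells expressing human mu opioid receptor, 300 μg/mL, in 50 mM Tris pH 7.5, 5 mM MgCl2. Incubated with compound and ³H-Damgo (3.6 nM before mixing) for 2 h at room temperature, filtered, counted by scintillation. Nonspecific binding with 1 μM unlabelled Damgo.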

[3] = tested on: novel environment-stressed mice; assay: In Vivo Assay-Stress-Induced Fecal Output (Fecal Output for 1 hr); set-up: species or system mouse; settings: for Fecal Output (# pellets) cpd: novel environment-stressed mice; for response vs control in vivo at 30 mg/kg / response vs control in vivo at 10 mg/kg: Mus musculus, po, 1 h
Text: This assay evaluates the fecal output in novel environment-stressed mice to that of acclimated controls.
Methods: Adult, male, Crl:CD-1(ICR) mice, weighing ˜30-35 g were used in these studies, with a minimum of 10 mice per dose group. One group of mice was assigned as acclimated, or “non-stressed” controls. These control mice were transported from colony housing, where they were housed 3/cage in polycarbonate cages with access to food and water ad lib. to the procedure room. The mice were removed from their home cages and individually housed in 20 cm wide×20 cm deep×15 cm tall cages, equipped with a wire mesh bottom where they remained for a 16-18 hr period of acclimation to their novel environment. Mice were allowed access to food and water ad lib. during acclimation. The other groups of mice were assigned as non-acclimated, or “stressed” treatment groups. Each mouse in each group was weighed and vehicle, or test compound, was intragastrically administered by oral intubation in 0.5% methylcellulose. Mice were allowed access to water only ad lib. during the test period. After compound administrations, acclimated (control) as well as non-acclimated (stressed) mice were individually housed in a 20 cm wide×20 cm deep×15 cm tall cage, with a wire mesh bottom. An absorbant cardboard is placed beneath the cages. The number of fecal pellets excreted by each mouse was determined at hourly intervals following placement of the mice in the individual cages. Raw Data=# of fecal pellets/mouse/hr. […]

[4] = 30 mg/kg oral, relative to acclimated control, 1 hr, read-out: Fecal Output cpd % control
[5] = 30 mg/kg oral, relative to novel environment stress (NES) vehicle group, 1 hr, read-out: Fecal Output cpd % NES

T1 sequence (P41143 whole entry): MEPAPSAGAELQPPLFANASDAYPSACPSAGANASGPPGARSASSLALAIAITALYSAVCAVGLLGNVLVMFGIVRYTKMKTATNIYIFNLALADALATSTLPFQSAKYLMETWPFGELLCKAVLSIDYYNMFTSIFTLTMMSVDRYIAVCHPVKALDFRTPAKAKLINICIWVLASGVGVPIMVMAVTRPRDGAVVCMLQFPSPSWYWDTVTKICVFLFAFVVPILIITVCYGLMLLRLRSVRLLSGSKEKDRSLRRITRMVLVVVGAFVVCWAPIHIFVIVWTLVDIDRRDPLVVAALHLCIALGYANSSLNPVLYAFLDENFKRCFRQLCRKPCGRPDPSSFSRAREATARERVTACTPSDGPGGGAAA
T2 sequence (P35372 whole entry): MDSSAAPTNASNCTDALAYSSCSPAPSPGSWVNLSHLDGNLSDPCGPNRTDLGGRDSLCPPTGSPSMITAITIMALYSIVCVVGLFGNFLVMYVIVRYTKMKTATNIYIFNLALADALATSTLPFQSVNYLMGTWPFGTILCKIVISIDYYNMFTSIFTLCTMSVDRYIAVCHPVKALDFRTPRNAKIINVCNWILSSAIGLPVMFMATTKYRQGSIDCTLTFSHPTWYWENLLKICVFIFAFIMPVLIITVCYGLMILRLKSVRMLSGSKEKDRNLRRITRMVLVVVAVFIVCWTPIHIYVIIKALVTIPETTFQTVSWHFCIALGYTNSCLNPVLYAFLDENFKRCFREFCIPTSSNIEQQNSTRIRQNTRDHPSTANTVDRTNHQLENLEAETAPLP

Compound | Ki [1] | Ki [2] | Fecal Output (# pellets) cpd ([3]; 30 mg/kg oral, 1 hr) | response vs control in vivo at 30 mg/kg [3, 4] | response vs control in vivo at 30 mg/kg [3, 5] | further results
Cc1cc(C(N)=O)cc(C)c1C[C@H](N)C(=O)N(C(C)C)[C@@H](CO)c1nc(-c2ccccc2)c[nH]1 [Cpd 85] | 1170 nM | 5.4 nM | 7.9 pellets | 146% | 65.8% | –
Cc1cc(C(N)=O)cc(C)c1C[C@H](N)C(=O)N(Cc1ccccc1)Cc1nc(-c2ccccc2)c[nH]1 [Cpd 107] | 584 nM | 2.95 nM | 13.1 pellets | 230% | 87.3% | –
Cc1cc(C(N)=O)cc(C)c1C[C@H](N)C(=O)N(Cc1nc(-c2ccccc2)c[nH]1)[C@@H](C)c1ccccc1 [Cpd 95] | 278 nM | 7.8 nM | 8.5 pellets | 315% | 93.4% | –
Cc1cc(O)cc(C)c1C[C@H](N)C(=O)N(Cc1cccc(C#N)c1)[C@@H](C)c1nc(-c2ccccc2)c[nH]1 [Cpd 91] | 15 nM | 4.8 nM | 8.9 pellets | 287% | 69% | –
Cc1cc(C(N)=O)cc(C)c1C[C@H](N)C(=O)N(Cc1ccccc1)[C@@H](C)c1nc(-c2ccc(Cl)cc2)c(C)[nH]1 [Cpd 58] | 70 nM | 8.5 nM | 3.9 pellets | 170% | 55.7% | –
Cc1cc(C(N)=O)cc(C)c1C[C@H](N)C(=O)N(C(C)C)[C@@H](C)c1nc(-c2ccccc2)c[nH]1 [Cpd 143] | 69 nM | 1.6 nM | 5.2 pellets | 69.3% | 56.5% | Fecal Output (# pellets) cpd ([3]; 10 mg/kg oral, 1 hr): 9.1 pellets; response vs control in vivo at 10 mg/kg ([3]; 10 mg/kg oral, relative to acclimated control, 1 hr, read-out: Fecal Output cpd % control): 246%; response vs control in vivo at 10 mg/kg ([3]; 10 mg/kg oral, relative to novel environment stress (NES) vehicle group, 1 hr, read-out: Fecal Output cpd % NES): 66.9%
COC(=O)c1ccc(CN(C(=O)[C@@H](N)Cc2c(C)cc(O)cc2C)[C@@H](C)c2nc(-c3ccccc3)c[nH]2)cc1 [Cpd 89] | 19.3 nM | 9.2 nM | 6.4 pellets | 128% | 55.2% | –
Cc1cc(O)cc(C)c1C[C@H](N)C(=O)N(C(C)C)[C@@H](CO)c1nc(-c2ccccc2)c[nH]1 [Cpd 118] | 316 nM and 212 nM | 1.04 nM | 7.2 pellets | 134% | 60.2% | –
Cc1cc(O)cc(C)c1C[C@H](N)C(=O)N(Cc1ccc(Cl)c(Cl)c1)Cc1nc(-c2ccccc2)c[nH]1 [Cpd 87] | 38.9 nM | 12.6 nM | 10.3 pellets | 141% | 79.8% | –
Cc1cc(C(N)=O)cc(C)c1C[C@H](N)C(=O)N(Cc1nc(-c2ccccc2)c[nH]1)[C@H](C)c1ccccc1 [Cpd 94] | 403 nM | 4.1 nM | 9.4 pellets | 348% | 103% | –
CNc1ccc(CN(C(=O)C(N)Cc2c(C)cc(O)cc2C)C(C)c2nc(-c3ccccc3)c[nH]2)cc1 (centres unmarked) [Cpd 78] | 28.9 nM | 2.4 nM | 3.3 pellets | 91.7% | 45.2% | –
CC(=O)Nc1ccc(CN(C(=O)[C@@H](N)Cc2c(C)cc(O)cc2C)[C@@H](C)c2nc(-c3ccccc3)c[nH]2)cc1 [Cpd 79] | 11.5 nM | 1.7 nM | 7.1 pellets | 197% | 97.3% | –
Cc1cc(O)cc(C)c1C[C@H](N)C(=O)N(Cc1cccnc1)[C@@H](C)c1nc(-c2ccccc2)c[nH]1 [Cpd 92] | 5.4 nM | 0.25 nM | 9.2 pellets | 256% | 82.9% | –
Cc1cc(O)cc(C)c1C[C@H](N)C(=O)N(Cc1ccc(Cl)cc1Cl)[C@@H](C)c1nc(-c2ccccc2)c[nH]1 [Cpd 103] | 9.7 nM | 23 nM | 10.2 pellets | 140% | 79.1% | –
Cc1cc(C(N)=O)cc(C)c1C[C@H](N)C(=O)N(C(C)c1ccccc1)[C@@H](C)c1nc(-c2ccccc2)c[nH]1 (single isomer, unassigned) [Cpd 112] | 135 nM | 9.5 nM | 7.2 pellets | – | – | Fecal Output cpd % control ([3]; 30 mg/kg oral, relative to acclimated control, 1 hr): 100.0%; Fecal Output cpd % NES ([3]; 30 mg/kg oral, relative to novel environment stress (NES) vehicle group, 1 hr): 69.9%
Cc1cc(O)cc(C)c1C[C@H](N)C(=O)N(Cc1nc(-c2cccc(C(=O)O)c2)c(C)[nH]1)C(C)C [Cpd 133] | 108 nM | 11.5 nM | 9.9 pellets | 180% | 81.8% | –
Cc1cc(O)cc(C)c1C[C@H](N)C(=O)N(Cc1ccncc1)[C@@H](C)c1nc(-c2ccccc2)c[nH]1 [Cpd 57] | 2.2 nM | 0.66 nM | 7.6 pellets | 195% | 53.9% | –
Cc1cc(C(N)=O)cc(C)c1C[C@H](N)C(=O)N(C)[C@H](C)c1nc(-c2ccccc2)c[nH]1 [Cpd 144] | 251 nM | 1.3 nM | 11.5 pellets | 311% | 84.6% | –
Cc1cc(O)cc(C)c1C[C@H](N)C(=O)N(Cc1ccc(C(=O)O)cc1)[C@@H](C)c1nc(-c2ccccc2)c[nH]1 [Cpd 80] | 0.95 nM | 1.09 nM | – | – | 75.3% | –
COc1ccc(CN(C(=O)[C@@H](N)Cc2c(C)cc(O)cc2C)[C@@H](C)c2nc(-c3ccccc3)c[nH]2)cc1OC [Cpd 102] | 5.2 nM | 3.5 nM | 3.4 pellets | 59.6% | 22.7% | # of pellets, Compound (m) 3.0 ([3]; dose 3.0, oral, NES mice, fecal output 1 hr): 6.9; Fecal pellet output, Compound (% control) 3.0 ([3]; dose 3.0, oral, NES mice, vs acclimated control): 130.2 % control; Fecal pellet output, Compound (% NES) 3.0 ([3]; dose 3.0, oral, vs vehicle NES group): 64.5 % NES; # of pellets, Compound (m) 10.0 ([3]; dose 10.0, oral, NES mice, fecal output 1 hr): 4.5; Fecal pellet output, Compound (% control) 10.0 ([3]; dose 10.0, oral, NES mice, vs acclimated control): 84.9 % control; Fecal pellet output, Compound (% NES) 10.0 ([3]; dose 10.0, oral, vs vehicle NES group): 42.06 % NES; # of pellets, Compound (m) 30.0 ([3]; dose 30.0, oral, NES mice, fecal output 1 hr): 2.22; Fecal pellet output, Compound (% control) 30.0 ([3]; dose 30.0, oral, NES mice, vs acclimated control): 42 % control; Fecal pellet output, Compound (% NES) 30 ([3]; dose 30, oral, vs vehicle NES group): 20.77 % NES
